Results taken from patent publication US20240148821A1, “PHARMACEUTICAL USE OF CYCLIC PEPTIDE COMPOUND” (CHUGAI SEIYAKU KABUSHIKI KAISHA, priority 2021, published 2024).
Bridge positions count the residues as written; N and C are the ends. Square brackets hold non-standard residues; d marks the D form. Peptide text beside a SMILES is read from it. * marks the point of attachment. hPhe(3-Cl-4-CF3) = N[C@@H](CCc1ccc(C(F)(F)F)c(Cl)c1)C(=O)O; hPhe(3-F,4-CF3) = N[C@@H](CCc1ccc(C(F)(F)F)c(F)c1)C(=O)O; NMePhe(3-Me) = CN[C@@H](Cc1cccc(C)c1)C(=O)O; NMeNle(6-CHF2) = CN[C@@H](CCCCC(F)F)C(=O)O; NMePhe(3-F) = CN[C@@H](Cc1cccc(F)c1)C(=O)O; hPhe(3-Cl) = N[C@@H](CCc1cccc(Cl)c1)C(=O)O; NMeGly(cPent) = CN[C@H](C(=O)O)C1CCCC1; NMeGly(cBu) = CN[C@H](C(=O)O)C1CCC1; NMeCha = CN[C@@H](CC1CCCCC1)C(=O)O; NMeGly(cPr) = CN[C@H](C(=O)O)C1CC1; Gly(N-(CH2)2OEt) = CCOCCNCC(=O)O; NMeChg = CN[C@H](C(=O)O)C1CCCCC1; NMeD = CN[C@@H](CC(=O)O)C(=O)O; NMeL = CN[C@@H](CC(C)C)C(=O)O; Chg = N[C@H](C(=O)O)C1CCCCC1; NMeV = CN[C@H](C(=O)O)C(C)C; d(β3hA) = C[C@@H](N)CC(=O)O; Azetidin(1-yl) = C1CN(*)C1; NMeA = CN[C@@H](C)C(=O)O; Piperidide = C1CCN(*)CC1; Pyrrolidide = C1CCN(*)C1; Ac5c = NC1(C(=O)O)CCCC1; Aze = O=C(O)[C@@H]1CCN1; NcPrGly = O=C(O)CNC1CC1; Aib = CC(C)(N)C(=O)O; Sar = CNCC(=O)O

These molecules were tested on Human pancreatic cancer cell line AsPC-1 (G12D mutation Kras) (assay: AsPC-1 cell growth inhibition (AsPC-1 CGI)). Details: read-out: AsPC-1 cell growth inhibition, 50% growth inhibitory concentration (IC50 value); 96 hours, CellTiter-Glo, values classified in ranges.
Assay type: cell-based
Method: Test compounds were serially dilated with dimethyl sulfoxide, and 200 nL was then dispensed to a U-bottom 96-well plate using Labcyte Echo. […] The cell suspension was dispensed to a. plate containing a test compound at 100 μL per well and incubated at 37° C. in a 5% carbon dioxide gas incubator. 96 hours later, 80 μL of CellTiter-Glo (Promega) was added to each well and fluorescence was measured.
In the case of `CC(C)C[C@H]1C(=O)N[C@@H](C2CCCCC2)C(=O)N(C)CC(=O)N(C)CC(=O)N(C)[C@@H](CCCCC(F)F)C(=O)N(C)CC(=O)N[C@@H](CCc2ccc(C(F)(F)F)c(F)c2)C(=O)N(C)[C@@H](CC(C)C)C(=O)NC(C)(C)C(=O)N(C)[C@@H](CC(C)C)C(=O)N[C@H](C(=O)N2CCCC2)CC(=O)N1C` [Compound 1453] ([NMeL][Chg][Sar][Sar][NMeNle(6-CHF2)][Sar][hPhe(3-F,4-CF3)][NMeL][Aib][NMeL]D-Pyrrolidide; lactam N-11), the IC50 is reported as > 500 nM. For `CCOCCN1CC(=O)N(C)CC(=O)N(C)[C@@H](CC2CCCCC2)C(=O)N(C)CC(=O)N[C@@H](CCc2ccc(C(F)(F)F)c(Cl)c2)C(=O)N2CCC[C@H]2C(=O)NC2(CCCC2)C(=O)N(C)[C@@H](C(C)C)C(=O)N[C@H](C)CC(=O)N(C)[C@@H](CC(C)C)C(=O)N[C@@H]([C@@H](C)CC)C1=O` [Compound 329] (cyclo([Ac5c][NMeV][d(β3hA)][NMeL]I[Gly(N-(CH2)2OEt)][Sar][NMeCha][Sar][hPhe(3-Cl-4-CF3)]P)), the IC50 was > 500 nM. In the case of `CC[C@H](C)[C@@H]1NC(=O)[C@H](CC(C)C)N(C)C(=O)C[C@@H](C(=O)N2CCCCC2)N(C)C(=O)[C@H](C2CCCCC2)N(C)C(=O)C2(CCCC2)NC(=O)[C@@H]2CCCN2C(=O)[C@H](CCc2ccc(C(F)(F)F)c(Cl)c2)NC(=O)CN(C)C(=O)[C@H](C2CCC2)N(C)C(=O)CN(C)C(=O)CN(C)C1=O` [Compound 936] ([NMeL]I[Sar][Sar][NMeGly(cBu)][Sar][hPhe(3-Cl-4-CF3)]P[Ac5c][NMeChg][NMeD]-Piperidide; lactam N-11), the IC50 is reported as > 500 nM. With `CC[C@H](C)[C@@H]1NC(=O)[C@H](CC(C)C)N(C)C(=O)C[C@@H](C(=O)N2CCC2)N(C)C(=O)[C@H](C2CCCC2)N(C)C(=O)C2(CCCC2)NC(=O)[C@@H]2CCCN2C(=O)[C@H](CCc2ccc(C(F)(F)F)c(Cl)c2)NC(=O)CN(C)C(=O)[C@H](CC2CCCCC2)N(C)C(=O)[C@@H]2CCN2C(=O)[C@H](C)N(C)C1=O` [Compound 515] ([NMeL]I[NMeA][Aze][NMeCha][Sar][hPhe(3-Cl-4-CF3)]P[Ac5c][NMeGly(cPent)][NMeD]-{Azetidin(1-yl)}; lactam N-11) the IC50 was ≤ 20 nM. `CC[C@H](C)[C@@H]1NC(=O)[C@H](C)N(C)C(=O)C[C@@H](C)NC(=O)[C@H](C2CCCC2)N(C)C(=O)C2(CCCC2)NC(=O)[C@@H]2CCCN2C(=O)[C@H](CCc2ccc(C(F)(F)F)c(Cl)c2)NC(=O)CN(C)C(=O)[C@H](Cc2cccc(F)c2)N(C)C(=O)[C@@H]2CCCN2C(=O)CN(C)C1=O` [Compound 194] (cyclo([Ac5c][NMeGly(cPent)][d(β3hA)][NMeA]I[Sar]P[NMePhe(3-F)][Sar][hPhe(3-Cl-4-CF3)]P)) was tested, and the IC50 was > 500 nM. For `CC[C@H](C)[C@@H]1NC(=O)[C@H](C2CC2)N(C)C(=O)C[C@@H](C)NC(=O)[C@H](C(C)C)N(C)C(=O)C2(CCCC2)NC(=O)[C@@H]2CCCN2C(=O)[C@H](CCc2ccc(C(F)(F)F)c(Cl)c2)NC(=O)CN(C)C(=O)[C@H](CC2CCCCC2)N(C)C(=O)[C@@H]2CCN2C(=O)[C@H](C)N(C)C1=O` [Compound 565] (cyclo([Ac5c][NMeV][d(β3hA)][NMeGly(cPr)]I[NMeA][Aze][NMeCha][Sar][hPhe(3-Cl-4-CF3)]P)), the IC50 was > 500 nM. For `CC[C@H](C)[C@@H]1NC(=O)[C@H](CC(C)C)N(C)C(=O)C[C@@H](C)NC(=O)[C@H](C(C)C)N(C)C(=O)C2(CCCC2)NC(=O)[C@@H]2CCCN2C(=O)[C@H](CCc2ccc(C(F)(F)F)c(Cl)c2)NC(=O)CN(C2CC2)C(=O)[C@H](CC2CCCCC2)N(C)C(=O)CN(C)C(=O)CN(C)C1=O` [Compound 204] (cyclo([Ac5c][NMeV][d(β3hA)][NMeL]I[Sar][Sar][NMeCha][NcPrGly][hPhe(3-Cl-4-CF3)]P)), the IC50 was > 500 nM. For `CC[C@H](C)[C@@H]1NC(=O)[C@H](CC(C)C)N(C)C(=O)C[C@@H](C)NC(=O)[C@H](C(C)C)N(C)C(=O)C2(CCCC2)NC(=O)[C@@H]2CCCN2C(=O)[C@H](CCc2ccc(C(F)(F)F)c(Cl)c2)NC(=O)CN(C)C(=O)[C@H](Cc2cccc(C)c2)N(C)C(=O)CN(C)C(=O)CN(C)C1=O` [Compound 1547] (cyclo([Ac5c][NMeV][d(β3hA)][NMeL]I[Sar][Sar][NMePhe(3-Me)][Sar][hPhe(3-Cl-4-CF3)]P)), the IC50 was > 500 nM. In the case of `CC[C@H](C)[C@@H]1NC(=O)[C@H](C)N(C)C(=O)C[C@@H](C(=O)N2CCCCC2)N(C)C(=O)[C@H](C2CCCCC2)N(C)C(=O)C2(CCCC2)NC(=O)[C@@H]2CCCN2C(=O)[C@H](CCc2cccc(Cl)c2)NC(=O)CN(C)C(=O)[C@H](CC2CCCCC2)N(C)C(=O)CN(C)C(=O)CN(C)C1=O` [Compound 954] ([NMeA]I[Sar][Sar][NMeCha][Sar][hPhe(3-Cl)]P[Ac5c][NMeChg][NMeD]-Piperidide; lactam N-11), the IC50 is reported as > 500 nM.
